What was measured:
SARS-CoV2 WA1 = assay type: cell-based; conditions: virus pre-incubated 1 h with 0.5-16 mg/mL; MOI 0.1; 48 h; FIG. 1
RSV-A2 [1] = test: Pre-incubation of RSV-A2 with HMOs prior to infection of HEp-2 cells (Viral ToxGlo); assay type: cell-based, respiratory syncytial virus
RSV-A2 [2] = test: Pre-incubation of HEp-2 cells with HMOs before RSV-A2 infection (Viral ToxGlo); assay type: cell-based, respiratory syncytial virus
Description: To assess the effect of mixtures of HMOs on a negative-sense single-stranded RNA virus in vitro infection assays were performed with RSV-A2 strain. Pre-incubation of either HEp-2 cells or RSV-A2 with HMOs prior to infection was compared to assess anti-viral activity. Hep2 cells were exposed to the following conditions as discussed in more detail separately: • I. Pre-incubation of HEp-2 cells with HMOs before viral infection. • II.
HEp-2 cells were seeded in white [Greiner 655098]96 well plates in assay medium (EMEM [Sigma M2279]) supplemented with 2% heat-inactivated fetal bovine serum (HI-FBS) [Gibco 10500064], 1% Penicillin/streptomycin [Gibco 15140122] and 1% L-glutamine [Gibco 25030024] and incubated at 37° C. and 5% CO2 for 5 hours.
HMO mixtures were prepared in sterile water and ribavirin (compound that blocks viral RNA synthesis and viral mRNA capping) was prepared in 1% DMSO at 10× test concentration in a round-bottom 96-well plate [Corning 3788], then serially diluted 2-fold.
The following compounds were assessed for their capacity to inhibit RSV-A2 viral infection: • 2′-FL • A mixture of GOS:FOS at a 9:1 weight ratio • Total HMOs • Mixture of 5 HMOs • Mixture of 19 HMOs • 6′-SL
Test compounds were subsequently transferred to the HEp-2 cell plates. Additional assay medium was added to ensure a final HMO concentration range of 0.13-16 mg/mL. Cell plates were incubated for 24 hours at 37° cand 5% CO2.
After 24-hour incubation with the test conditions RSV-A2 was added to the HMO containing HEp-2 cell plates to achieve a final multiplicity of infection [MOI] of 0.5. Cell plates were incubated for a further 72 hours at 37° C. and 5% CO2.
Viral ToxGlo™ [Promega G8943] was added to the plates to assess cell metabolism following viral infection and HMO treatment. After 20 minutes incubation, luminescence of each plate was measured on a spectrophotometer. Data were analysed using GraphPad Prism software to determine the concentration effective in producing 50% of viral inhibition expressed as ECso values for ribavirin and HMOs where relevant.

[3] = system: rotavirus (RV) strain SA11; test: Caco-2 epithelial barrier model infected with rotavirus SA11 (TEER, lucifer yellow permeability); assay type: cell-based; conditions: Caco-2, 5% (50 mg/ml) for 4 h before SA11 MOI 0.1; 20 h p.i.; FIG. 2A
[4] = system: IL-8 secretion of HT-29 cells; test: IL-8 secretion and viability of HT-29 cells pre-incubated with test compounds and challenged with Lyovec-complexed Poly I:C; assay type: cell-based, Human

| SMILES | viral neutralization efficacy (viral RNA by RT-qPCR) (SARS-CoV2 WA1) | Maximum viral inhibition (%) (RSV-A2 [1]; RSV-A2 pre-incubated 1 h, 0.13-16 mg/mL, MOI 0.5, 72 h) | Test concentration maximum viral inhibition (RSV-A2 [1]; RSV-A2 pre-incubated 1 h, concentration at which the maximum inhibition was seen) [mg/mL] | antiviral activity (in words) (RSV-A2 [1]; RSV-A2 pre-incubated prior to infection, both replicates (94-95% infection)) | Maximum viral inhibition (%) (RSV-A2 [2]; HEp-2 cells pre-incubated 24 h, 0.13-16 mg/mL, RSV-A2 MOI 0.5, 72 h) | Test concentration maximum viral inhibition (RSV-A2 [2]; HEp-2 cells pre-incubated 24 h, concentration at which the maximum inhibition was seen) [mg/mL] | anti-viral activity, replicate 1 (in words) (RSV-A2 [2]; HEp-2 pre-incubation, replicate 1 (67% infection)) | prevention of rotavirus induced decrease in TEER [3] | Mean IL-8 secretion ([4]; 0.1% + Poly I:C, Poly I:C alone 21799.28) [pg/mL] | Mean IL-8 secretion ([4]; 0.1%, no Poly I:C, Medium 359.54) [pg/mL] |
| --- | --- | --- | --- | --- | --- | --- | --- | --- | --- | --- |
| CC(=O)N[C@H]1[C@H]([C@H](O)[C@H](O)CO)O[C@@](OC[C@H]2O[C@@H](O[C@H]3[C@H](O)[C@@H](O)[C@H](O)O[C@@H]3CO)[C@H](O)[C@@H](O)[C@H]2O)(C(=O)O)C[C@@H]1O [6′-SL, 6′-sialyllactose] | did not show viral neutralization efficacy | −0.58 | 1 | no anti-viral activity | 2.6 | 8 | no anti-viral activity | – | – | – |
| O=C[C@H](O)[C@@H](O)[C@H](O[C@@H]1O[C@H](CO)[C@@H](O)[C@H](O)[C@H]1O)[C@H](O)CO [Cellobiose, cellobiose] | – | – | – | – | – | – | – | no effect | 20023.80 | 277.94 |

— patent publication US20260240884A1, “MIXTURE OF HUMAN MILK OLIGOSACCHARIDES” (N.V. Nutricia, priority 2023, published 2026)
